In ChEMBL document CHEMBL1201862, “PubChem BioAssay data set” (2004):
Calls of active or inactive are those of the source.

Experiments:
Format in all cases: functional
[1] = target: Maternal embryonic leucine zipper kinase (Homo sapiens, UniProt Q14680)
[2] = target: Serine/threonine-protein kinase Nek2 (Homo sapiens, UniProt P51955)
[3] = target: Lymphokine-activated killer T-cell-originated protein kinase (Homo sapiens, UniProt Q96KB5);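 note: value comes from a kinase panel screen in which TOPK was one of the panel members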
[4] = target: Tyrosine-protein kinase Fyn (Homo sapiens, UniProt P06241)
[5] = target: Interleukin-1 receptor-associated kinase 1 (Homo sapiens, UniProt P51617);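 note: IRAK1 tested as one member of a kinome panel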
[6] = target: Phosphorylase b kinase gamma catalytic chain, liver/testis isoform (Homo sapiens, UniProt P15735);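 note: PHKG2 measured as one member of a kinome-wide kinase panel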
[7] = target: T1, Receptor-type tyrosine-protein kinase FLT3 (Homo sapiens, UniProt P36888);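 note: FLT3 was tested as one member of a kinome-wide kinase panel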
T1 sequence (P36888 whole entry): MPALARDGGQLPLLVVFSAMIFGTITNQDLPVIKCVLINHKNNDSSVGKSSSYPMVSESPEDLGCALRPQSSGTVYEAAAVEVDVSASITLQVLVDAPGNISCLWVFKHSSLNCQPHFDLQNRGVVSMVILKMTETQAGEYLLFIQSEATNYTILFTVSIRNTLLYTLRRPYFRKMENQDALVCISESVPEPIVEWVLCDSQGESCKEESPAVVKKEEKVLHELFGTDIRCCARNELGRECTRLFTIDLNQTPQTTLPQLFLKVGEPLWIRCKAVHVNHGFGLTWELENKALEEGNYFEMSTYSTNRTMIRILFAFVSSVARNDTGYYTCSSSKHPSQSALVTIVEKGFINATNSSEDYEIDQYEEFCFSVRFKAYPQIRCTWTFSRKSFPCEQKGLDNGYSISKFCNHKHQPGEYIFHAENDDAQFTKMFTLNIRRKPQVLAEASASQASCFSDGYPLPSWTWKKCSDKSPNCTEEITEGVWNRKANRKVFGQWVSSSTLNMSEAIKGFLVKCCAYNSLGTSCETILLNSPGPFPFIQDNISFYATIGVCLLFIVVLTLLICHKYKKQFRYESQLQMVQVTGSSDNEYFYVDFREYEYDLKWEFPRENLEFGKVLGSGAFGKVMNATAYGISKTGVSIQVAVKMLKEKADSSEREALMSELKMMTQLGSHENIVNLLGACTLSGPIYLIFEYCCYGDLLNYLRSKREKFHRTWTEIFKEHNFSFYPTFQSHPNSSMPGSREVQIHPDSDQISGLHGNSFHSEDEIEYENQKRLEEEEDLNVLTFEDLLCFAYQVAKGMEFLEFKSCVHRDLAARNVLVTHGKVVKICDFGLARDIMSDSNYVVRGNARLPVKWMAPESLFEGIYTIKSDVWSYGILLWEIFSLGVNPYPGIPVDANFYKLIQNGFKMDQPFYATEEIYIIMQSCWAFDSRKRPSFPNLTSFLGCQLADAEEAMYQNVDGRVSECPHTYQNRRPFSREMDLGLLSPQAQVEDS

[8] = target: Vascular endothelial growth factor receptor 1 (Homo sapiens, UniProt P17948);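 note: measured within a kinome-wide profiling panel, FLT1 as the panel member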
[9] = target: Vascular endothelial growth factor receptor 2 (Homo sapiens, UniProt P35968)
[10] = target: Serine/threonine-protein kinase N2 (Homo sapiens, UniProt Q16513)
[11] = target: Serine/threonine-protein kinase PAK 4 (Homo sapiens, UniProt O96013);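 note: value obtained within a kinome profiling panel in which PAK4 was one of the panel members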
[12] = target: Serine/threonine-protein kinase PAK 1 (Homo sapiens, UniProt Q13153)
[13] = target: BDNF/NT-3 growth factors receptor (Homo sapiens, UniProt Q16620);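 note: NTRK2 measured as one member of a broad kinome-wide kinase profiling panel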
[14] = target: Mitogen-activated protein kinase 8 (Homo sapiens, UniProt P45983);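 note: value comes from one member of a kinome-wide kinase profiling panel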
[15] = target: Tyrosine-protein kinase Srms (Homo sapiens, UniProt Q9H3Y6);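 note: SRMS measured as one member of a kinome-wide kinase profiling panel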
[16] = target: Serine/threonine-protein kinase 3 (Homo sapiens, UniProt Q13188);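 note: measured as one member of a kinome-wide kinase panel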
[17] = target: Serine/threonine-protein kinase DCLK1 (Homo sapiens, UniProt O15075);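 note: affinity for DCLK1 (listed as DCAMKL1) measured as one member of a kinome-wide kinase profiling panel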
[18] = target: Proto-oncogene tyrosine-protein kinase Src (Homo sapiens, UniProt P12931);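 note: SRC entry within a kinome-wide kinase profiling panel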
[19] = target: Casein kinase I isoform alpha (Homo sapiens, UniProt P48729)
[20] = target: Mast/stem cell growth factor receptor Kit (Homo sapiens, UniProt P10721);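 note: KIT entry within a kinase panel assay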
[21] = target: T2, cGMP-dependent protein kinase 1 (Homo sapiens, UniProt Q13976);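 note: value from a kinome panel screen with PRKG1 as the panel member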
T2 sequence (Q13976 whole entry): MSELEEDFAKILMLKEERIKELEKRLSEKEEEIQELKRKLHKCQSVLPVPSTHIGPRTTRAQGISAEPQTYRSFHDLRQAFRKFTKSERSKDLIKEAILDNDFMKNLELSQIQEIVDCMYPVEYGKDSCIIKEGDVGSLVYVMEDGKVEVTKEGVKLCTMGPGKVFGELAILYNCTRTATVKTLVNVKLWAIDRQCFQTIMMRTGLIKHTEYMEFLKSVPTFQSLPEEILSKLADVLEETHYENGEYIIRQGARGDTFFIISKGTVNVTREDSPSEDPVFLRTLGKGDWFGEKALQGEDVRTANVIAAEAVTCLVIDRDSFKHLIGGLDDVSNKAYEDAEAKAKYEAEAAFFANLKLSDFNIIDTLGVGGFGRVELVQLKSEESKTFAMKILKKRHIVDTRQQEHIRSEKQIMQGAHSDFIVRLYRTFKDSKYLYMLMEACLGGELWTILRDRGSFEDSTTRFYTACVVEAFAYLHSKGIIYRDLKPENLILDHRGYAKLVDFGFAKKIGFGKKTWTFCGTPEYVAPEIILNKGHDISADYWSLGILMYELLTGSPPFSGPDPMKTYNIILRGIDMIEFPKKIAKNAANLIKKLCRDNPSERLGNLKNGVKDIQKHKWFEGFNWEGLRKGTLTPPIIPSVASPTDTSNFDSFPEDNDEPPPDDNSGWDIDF

[22] = target: Serine/threonine-protein kinase PLK3 (Homo sapiens, UniProt Q9H4B4)
[23] = target: Proto-oncogene tyrosine-protein kinase ROS (Homo sapiens, UniProt P08922);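 note: ROS1 tested as one member of a kinome-wide kinase panel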

Sequence of Mitogen-activated protein kinase 8 (P45983 whole entry): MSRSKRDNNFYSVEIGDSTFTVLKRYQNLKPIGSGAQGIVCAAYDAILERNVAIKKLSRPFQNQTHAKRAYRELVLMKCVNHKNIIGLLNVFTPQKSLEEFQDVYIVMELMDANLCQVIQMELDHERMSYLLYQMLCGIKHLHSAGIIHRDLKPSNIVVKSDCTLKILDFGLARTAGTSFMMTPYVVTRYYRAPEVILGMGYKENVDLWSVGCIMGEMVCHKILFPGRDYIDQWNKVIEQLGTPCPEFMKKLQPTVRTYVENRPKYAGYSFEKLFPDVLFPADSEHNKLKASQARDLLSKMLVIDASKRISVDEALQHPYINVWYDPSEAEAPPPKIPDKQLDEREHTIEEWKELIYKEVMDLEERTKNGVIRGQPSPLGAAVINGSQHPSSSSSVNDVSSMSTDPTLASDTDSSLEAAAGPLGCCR
Sequence of Casein kinase I isoform alpha (P48729 whole entry, canonical isoform): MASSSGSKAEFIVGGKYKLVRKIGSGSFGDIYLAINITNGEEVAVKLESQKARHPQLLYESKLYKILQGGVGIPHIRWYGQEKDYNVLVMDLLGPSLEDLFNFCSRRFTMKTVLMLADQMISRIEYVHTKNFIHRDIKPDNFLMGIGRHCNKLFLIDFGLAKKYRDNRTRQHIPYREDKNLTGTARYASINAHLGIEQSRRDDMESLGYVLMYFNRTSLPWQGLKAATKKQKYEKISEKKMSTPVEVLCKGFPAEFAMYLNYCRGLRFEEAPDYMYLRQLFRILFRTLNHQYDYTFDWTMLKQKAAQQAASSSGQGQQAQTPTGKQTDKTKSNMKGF
Sequence of Serine/threonine-protein kinase N2 (Q16513 whole entry): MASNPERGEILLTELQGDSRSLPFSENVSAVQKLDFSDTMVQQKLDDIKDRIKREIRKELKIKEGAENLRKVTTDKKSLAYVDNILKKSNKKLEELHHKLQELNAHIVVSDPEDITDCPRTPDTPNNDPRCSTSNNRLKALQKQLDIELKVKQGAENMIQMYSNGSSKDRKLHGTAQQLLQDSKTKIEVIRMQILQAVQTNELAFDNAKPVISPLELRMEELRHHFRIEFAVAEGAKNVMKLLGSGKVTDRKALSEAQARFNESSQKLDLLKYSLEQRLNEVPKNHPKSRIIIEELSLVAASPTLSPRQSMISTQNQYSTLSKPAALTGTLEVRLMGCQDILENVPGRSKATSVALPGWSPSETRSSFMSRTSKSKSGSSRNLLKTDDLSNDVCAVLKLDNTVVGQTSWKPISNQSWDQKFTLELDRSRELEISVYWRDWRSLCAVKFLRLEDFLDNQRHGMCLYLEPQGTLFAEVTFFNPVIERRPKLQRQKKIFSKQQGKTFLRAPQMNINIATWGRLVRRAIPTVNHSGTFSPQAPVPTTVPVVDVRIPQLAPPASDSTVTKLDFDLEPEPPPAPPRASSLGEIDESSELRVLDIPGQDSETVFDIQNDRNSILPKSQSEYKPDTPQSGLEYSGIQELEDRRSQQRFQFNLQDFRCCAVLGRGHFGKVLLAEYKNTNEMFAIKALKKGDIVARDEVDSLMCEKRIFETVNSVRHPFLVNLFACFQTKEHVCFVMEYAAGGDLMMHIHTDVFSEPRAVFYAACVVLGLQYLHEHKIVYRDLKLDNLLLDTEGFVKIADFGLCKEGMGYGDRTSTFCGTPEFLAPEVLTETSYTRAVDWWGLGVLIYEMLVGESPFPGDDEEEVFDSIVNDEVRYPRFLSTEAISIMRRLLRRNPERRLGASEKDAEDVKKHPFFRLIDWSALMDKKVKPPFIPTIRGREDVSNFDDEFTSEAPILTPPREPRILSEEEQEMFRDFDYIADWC
Sequence of Interleukin-1 receptor-associated kinase 1 (P51617 whole entry, canonical isoform): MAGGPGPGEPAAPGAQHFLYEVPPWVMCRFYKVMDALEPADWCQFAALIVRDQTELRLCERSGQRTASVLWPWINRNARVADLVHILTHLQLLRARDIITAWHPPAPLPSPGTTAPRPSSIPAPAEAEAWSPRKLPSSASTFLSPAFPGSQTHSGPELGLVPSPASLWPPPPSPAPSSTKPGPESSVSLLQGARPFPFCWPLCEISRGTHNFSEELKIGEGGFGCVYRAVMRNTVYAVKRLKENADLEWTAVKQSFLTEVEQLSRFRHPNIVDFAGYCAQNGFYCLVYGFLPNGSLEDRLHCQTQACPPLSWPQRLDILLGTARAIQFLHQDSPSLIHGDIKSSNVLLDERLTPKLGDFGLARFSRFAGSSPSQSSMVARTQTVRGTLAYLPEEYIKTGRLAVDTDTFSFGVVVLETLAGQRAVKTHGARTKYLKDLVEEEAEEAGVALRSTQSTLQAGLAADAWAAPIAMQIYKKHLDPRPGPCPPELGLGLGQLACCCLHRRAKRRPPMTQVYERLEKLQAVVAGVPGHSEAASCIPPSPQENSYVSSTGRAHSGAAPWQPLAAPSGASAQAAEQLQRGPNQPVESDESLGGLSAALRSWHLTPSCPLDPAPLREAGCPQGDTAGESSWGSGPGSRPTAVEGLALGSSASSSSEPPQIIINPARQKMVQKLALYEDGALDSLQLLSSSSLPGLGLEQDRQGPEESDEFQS
Sequence of Vascular endothelial growth factor receptor 2 (P35968 whole entry): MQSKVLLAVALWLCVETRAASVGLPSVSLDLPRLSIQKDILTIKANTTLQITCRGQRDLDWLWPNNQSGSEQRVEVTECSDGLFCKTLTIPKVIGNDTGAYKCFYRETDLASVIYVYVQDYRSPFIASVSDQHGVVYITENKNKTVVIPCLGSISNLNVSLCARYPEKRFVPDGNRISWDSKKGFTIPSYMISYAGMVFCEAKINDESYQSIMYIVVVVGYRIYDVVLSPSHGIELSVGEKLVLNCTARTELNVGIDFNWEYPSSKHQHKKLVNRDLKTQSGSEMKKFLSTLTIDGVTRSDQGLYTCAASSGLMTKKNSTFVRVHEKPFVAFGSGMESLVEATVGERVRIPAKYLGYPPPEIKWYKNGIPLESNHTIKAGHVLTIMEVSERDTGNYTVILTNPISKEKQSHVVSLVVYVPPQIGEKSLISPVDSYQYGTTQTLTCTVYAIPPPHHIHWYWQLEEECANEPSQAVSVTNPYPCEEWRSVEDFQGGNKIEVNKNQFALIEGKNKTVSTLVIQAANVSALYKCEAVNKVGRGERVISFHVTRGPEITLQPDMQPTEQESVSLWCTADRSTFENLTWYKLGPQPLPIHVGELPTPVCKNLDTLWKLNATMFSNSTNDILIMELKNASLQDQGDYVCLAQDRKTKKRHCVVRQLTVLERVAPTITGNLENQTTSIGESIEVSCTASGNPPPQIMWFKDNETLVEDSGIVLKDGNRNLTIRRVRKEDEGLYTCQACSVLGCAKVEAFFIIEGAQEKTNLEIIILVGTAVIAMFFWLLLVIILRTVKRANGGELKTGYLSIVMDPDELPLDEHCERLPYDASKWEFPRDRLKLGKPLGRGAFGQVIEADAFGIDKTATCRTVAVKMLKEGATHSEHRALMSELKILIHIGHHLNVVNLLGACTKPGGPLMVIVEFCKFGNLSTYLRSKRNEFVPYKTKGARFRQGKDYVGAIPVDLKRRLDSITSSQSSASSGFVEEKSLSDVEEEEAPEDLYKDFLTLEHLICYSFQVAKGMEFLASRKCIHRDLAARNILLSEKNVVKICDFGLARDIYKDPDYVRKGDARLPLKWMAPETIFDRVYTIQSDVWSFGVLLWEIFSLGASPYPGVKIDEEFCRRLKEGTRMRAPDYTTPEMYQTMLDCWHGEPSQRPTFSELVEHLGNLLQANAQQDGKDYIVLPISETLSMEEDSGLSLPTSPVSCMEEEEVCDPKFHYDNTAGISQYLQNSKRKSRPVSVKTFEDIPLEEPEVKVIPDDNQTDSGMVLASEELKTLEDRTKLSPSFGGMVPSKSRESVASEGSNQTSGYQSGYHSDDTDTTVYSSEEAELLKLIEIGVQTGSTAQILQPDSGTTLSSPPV
Sequence of Mast/stem cell growth factor receptor Kit (P10721 whole entry): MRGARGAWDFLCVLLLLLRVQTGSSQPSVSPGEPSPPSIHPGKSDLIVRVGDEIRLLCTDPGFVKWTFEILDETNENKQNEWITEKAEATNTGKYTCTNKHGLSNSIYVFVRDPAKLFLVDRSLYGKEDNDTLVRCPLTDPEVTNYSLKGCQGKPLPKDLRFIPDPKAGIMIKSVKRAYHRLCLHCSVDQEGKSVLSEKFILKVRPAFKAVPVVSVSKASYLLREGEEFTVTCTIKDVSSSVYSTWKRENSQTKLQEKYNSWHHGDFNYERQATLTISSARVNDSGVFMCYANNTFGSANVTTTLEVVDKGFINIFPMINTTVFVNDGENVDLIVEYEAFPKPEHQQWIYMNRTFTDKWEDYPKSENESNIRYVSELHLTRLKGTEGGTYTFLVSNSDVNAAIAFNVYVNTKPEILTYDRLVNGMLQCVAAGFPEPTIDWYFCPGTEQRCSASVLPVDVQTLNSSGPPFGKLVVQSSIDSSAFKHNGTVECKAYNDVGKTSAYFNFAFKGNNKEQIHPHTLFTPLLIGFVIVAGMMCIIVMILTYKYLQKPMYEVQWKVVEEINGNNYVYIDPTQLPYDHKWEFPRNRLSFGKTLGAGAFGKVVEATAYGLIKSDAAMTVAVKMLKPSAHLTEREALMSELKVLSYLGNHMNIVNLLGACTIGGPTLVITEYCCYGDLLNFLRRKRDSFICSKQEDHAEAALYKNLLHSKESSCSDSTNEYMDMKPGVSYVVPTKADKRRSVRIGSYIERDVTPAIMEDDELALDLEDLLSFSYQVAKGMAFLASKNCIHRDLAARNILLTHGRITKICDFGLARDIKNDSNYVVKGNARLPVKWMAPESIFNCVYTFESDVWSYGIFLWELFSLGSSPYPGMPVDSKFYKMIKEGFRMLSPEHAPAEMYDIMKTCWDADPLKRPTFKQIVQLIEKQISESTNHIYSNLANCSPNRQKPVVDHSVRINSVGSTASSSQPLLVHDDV

Ki [1] | Ki [2] | Ki [4] | Ki [5] | Ki [6] | Ki [7] | Ki [8] | Ki [9] | Ki [10] | Ki [11] | Ki [12] | Ki [13] | Ki [14] | Ki [15] | Ki [16] | Ki [17] | Ki [18] | Ki [19] | Ki [20] | Structure (SMILES) | Ki [3] | also measured
> 1580 nM (inactive) | > 10000 nM (inactive) | > 794 nM (inactive) | 100 nM (active) | > 5010 nM (inactive) | > 1260 nM (inactive) | > 398 nM (inactive) | 794 nM (active) | 20 nM (active) | > 5010 nM (inactive) | > 10000 nM (inactive) | > 3980 nM (inactive) | 398 nM (active) | > 1580 nM (inactive) | > 3160 nM (inactive) | > 10000 nM (inactive) | > 2000 nM (inactive) | 7.94 nM (active) | > 1260 nM (inactive) | NC(=O)c1cc(-c2ccnc(N)n2)[nH]c1-c1ccc(Cl)cc1Cl | 3160 nM (active) | pKi [5]: 7; pKi [9]: 6.1; pKi [10]: 7.7; pKi [14]: 6.4; pKi [19]: 8.1; Ki [21]: 794 nM (active); pKi [21]: 6.1; Ki [22]: > 7940 nM (inactive); Ki [23]: > 2000 nM (inactive)
5.01 nM (active) | 2000 nM (active) | 398 nM (active) | 501 nM (active) | 12.6 nM (active) | 31.6 nM (active) | > 398 nM (inactive) | 398 nM (active) | 5.01 nM (active) | 1260 nM (active) | 398 nM (active) | 316 nM (active) | 316 nM (active) | > 1580 nM (inactive) | 12.6 nM (active) | 1000 nM (active) | 398 nM (active) | 501 nM (active) | 126 nM (active) | NC(COc1cncc(-c2ccc3c(c2)C(=Cc2ccco2)C(=O)N3)c1)Cc1c[nH]c2ccccc12 (configuration not stated) | 501 nM (active) | Ki [21]: 1.26 nM (active); Ki [22]: 501 nM (active); Ki [23]: 1000 nM (active)
